Key:
[1] = molecular target: T1, Phosphodiesterase 10A (PDE10A) (Rattus norvegicus, UniProt Q9QYJ6); assay: [3H]TAK-063 saturation binding on rat brain sections (autoradiography); Kd […] NAc shell, […] CPu
T1 construct: native PDE10A in rat brain sections
T1 sequence (Q9QYJ6 1-794): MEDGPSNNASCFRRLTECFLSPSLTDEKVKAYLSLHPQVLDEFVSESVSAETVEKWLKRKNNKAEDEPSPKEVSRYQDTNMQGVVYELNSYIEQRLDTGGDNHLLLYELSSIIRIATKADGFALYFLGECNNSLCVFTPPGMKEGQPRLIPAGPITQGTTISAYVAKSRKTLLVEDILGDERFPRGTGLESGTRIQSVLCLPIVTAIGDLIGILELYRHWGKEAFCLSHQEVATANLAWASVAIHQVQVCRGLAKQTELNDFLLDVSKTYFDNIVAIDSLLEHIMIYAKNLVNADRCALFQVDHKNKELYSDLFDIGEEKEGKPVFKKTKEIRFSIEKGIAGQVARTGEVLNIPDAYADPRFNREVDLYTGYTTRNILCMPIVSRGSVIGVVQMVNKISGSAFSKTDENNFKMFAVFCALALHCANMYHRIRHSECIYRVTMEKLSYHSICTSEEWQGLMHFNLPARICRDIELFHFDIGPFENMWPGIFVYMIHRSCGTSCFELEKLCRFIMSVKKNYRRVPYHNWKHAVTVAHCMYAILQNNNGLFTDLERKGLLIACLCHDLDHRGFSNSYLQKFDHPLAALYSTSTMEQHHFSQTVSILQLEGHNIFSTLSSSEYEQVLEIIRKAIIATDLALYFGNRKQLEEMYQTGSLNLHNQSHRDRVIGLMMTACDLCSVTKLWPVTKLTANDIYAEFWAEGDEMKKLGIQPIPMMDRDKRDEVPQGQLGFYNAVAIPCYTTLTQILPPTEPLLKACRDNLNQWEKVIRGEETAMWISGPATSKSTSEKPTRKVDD

[2] = molecular target: T2, Phosphodiesterase PDE10A1 (Homo sapiens, UniProt Q9Y233); assay: enzyme inhibition panel at […] (Ricerca Biosciences), […] inhibition; assay type: biochemical
T2 construct: gene PDE10A; PDE10A1
T2 sequence (Q9Y233 1-779 isoform Q9Y233-1): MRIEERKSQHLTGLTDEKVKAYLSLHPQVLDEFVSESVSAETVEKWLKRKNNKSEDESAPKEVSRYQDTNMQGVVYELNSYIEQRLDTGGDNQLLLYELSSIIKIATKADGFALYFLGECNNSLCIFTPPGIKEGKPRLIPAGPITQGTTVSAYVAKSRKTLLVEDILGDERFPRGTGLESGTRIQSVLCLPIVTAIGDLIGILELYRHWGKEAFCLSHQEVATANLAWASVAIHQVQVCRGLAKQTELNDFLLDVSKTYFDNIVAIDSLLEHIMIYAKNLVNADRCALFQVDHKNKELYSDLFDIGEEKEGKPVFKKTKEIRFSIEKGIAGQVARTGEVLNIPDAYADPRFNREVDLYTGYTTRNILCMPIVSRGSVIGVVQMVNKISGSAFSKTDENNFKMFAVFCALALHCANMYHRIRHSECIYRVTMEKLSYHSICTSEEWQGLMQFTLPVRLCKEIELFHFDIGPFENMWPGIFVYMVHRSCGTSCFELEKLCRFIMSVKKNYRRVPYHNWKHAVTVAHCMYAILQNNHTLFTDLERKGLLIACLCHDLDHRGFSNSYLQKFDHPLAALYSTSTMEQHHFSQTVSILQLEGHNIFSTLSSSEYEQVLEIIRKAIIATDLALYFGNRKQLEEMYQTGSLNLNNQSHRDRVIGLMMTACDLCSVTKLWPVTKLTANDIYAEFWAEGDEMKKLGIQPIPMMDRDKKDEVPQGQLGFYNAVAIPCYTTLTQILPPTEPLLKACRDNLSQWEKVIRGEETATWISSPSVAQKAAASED

Question: What does the source list for COc1cn(-c2ccc(-n3cccn3)cc2F)nc(-c2ccnn2-c2ccccc2)c1=O [TAK-063, 1-[2-fluoro-4-(1H-pyrazol-1-yl)phenyl]-5-methoxy-3-(1-phenyl-1H-pyrazol-5-yl)-pyridazin-4(1H)-one]?
Answer: Kd [1]: 2.6 nM; inhibition at 10 µM [2]: 101%

— publication PMC4376699, “Characterization of Binding and Inhibitory Properties of TAK-063, a Novel Phosphodiesterase 10A Inhibitor” (PLoS ONE, 2015)
